Laboratory results as given in ChEMBL document CHEMBL5257106, “Design, synthesis, and biological evaluation of novel HDAC inhibitors with a 3-(benzazol-2-yl)quinoxaline framework” (Bioorg Med Chem Lett, 2023).
The source made the active and inactive calls. The rule behind the calls is not given here.

Experiments:
[1] = Cytotoxicity against HUVEC cells assessed as inhibition of cell growth by MTT assay; details: human
HCT-116 [2] = test: Inhibition of cell migration in human HCT-116 cells measured upto 12 hrs by wound healing assay; type: functional, cell-based; details: dose 0.5-1 µM
HCT-116 [3] = test: Induction of apoptosis in human HCT-116 cells assessed as necrotic cells at 0.5 uM incubated for 24 hrs by Annexin V-FITC/PI staining based flow cytometry analysis (reference value: 0.00%); type: functional
HCT-116 [4] = test: Induction of cell cycle arrest in human HCT-116 assessed as decrease in G0/G1 phase cells at 0.5 uM incubated for 48 hrs by flow cytometric analysis (reference value: 63.51%); type: functional; set-up: scale not given: the % may be the effect or the level left
HCT-116 [5] = test: Induction of cell cycle arrest in human HCT-116 assessed as increase in G2/M phase cells at 1 uM incubated for 48 hrs by flow cytometric analysis (reference value: 23.70%); type: functional
HCT-116 [6] = test: Induction of ROS production in human HCT-116 cells by flow cytometric analysis; type: functional, cell-based; details: dose 0.5-1 µM
[7] = target: Histone deacetylase (Homo sapiens) (UniProt Q13547+O15379+Q9UBN7+Q92769+Q9UQL6+Q8WUI4+Q9BY41+Q96DB2+P56524+Q9UKV0+Q969S8); test: Inhibition of HDAC in human HCT-116 cells assessed as increase in histone H3 acetylation incubated for 24 hrs by Western blot analysis; type: cell-based; details: dose 0.5-1 µM
[8] = target: T1, Protein deacetylase HDAC6 (Homo sapiens, UniProt Q9UBN7); test: Inhibition of HDAC6 (unknown origin)
T1 sequence (Q9UBN7 whole entry): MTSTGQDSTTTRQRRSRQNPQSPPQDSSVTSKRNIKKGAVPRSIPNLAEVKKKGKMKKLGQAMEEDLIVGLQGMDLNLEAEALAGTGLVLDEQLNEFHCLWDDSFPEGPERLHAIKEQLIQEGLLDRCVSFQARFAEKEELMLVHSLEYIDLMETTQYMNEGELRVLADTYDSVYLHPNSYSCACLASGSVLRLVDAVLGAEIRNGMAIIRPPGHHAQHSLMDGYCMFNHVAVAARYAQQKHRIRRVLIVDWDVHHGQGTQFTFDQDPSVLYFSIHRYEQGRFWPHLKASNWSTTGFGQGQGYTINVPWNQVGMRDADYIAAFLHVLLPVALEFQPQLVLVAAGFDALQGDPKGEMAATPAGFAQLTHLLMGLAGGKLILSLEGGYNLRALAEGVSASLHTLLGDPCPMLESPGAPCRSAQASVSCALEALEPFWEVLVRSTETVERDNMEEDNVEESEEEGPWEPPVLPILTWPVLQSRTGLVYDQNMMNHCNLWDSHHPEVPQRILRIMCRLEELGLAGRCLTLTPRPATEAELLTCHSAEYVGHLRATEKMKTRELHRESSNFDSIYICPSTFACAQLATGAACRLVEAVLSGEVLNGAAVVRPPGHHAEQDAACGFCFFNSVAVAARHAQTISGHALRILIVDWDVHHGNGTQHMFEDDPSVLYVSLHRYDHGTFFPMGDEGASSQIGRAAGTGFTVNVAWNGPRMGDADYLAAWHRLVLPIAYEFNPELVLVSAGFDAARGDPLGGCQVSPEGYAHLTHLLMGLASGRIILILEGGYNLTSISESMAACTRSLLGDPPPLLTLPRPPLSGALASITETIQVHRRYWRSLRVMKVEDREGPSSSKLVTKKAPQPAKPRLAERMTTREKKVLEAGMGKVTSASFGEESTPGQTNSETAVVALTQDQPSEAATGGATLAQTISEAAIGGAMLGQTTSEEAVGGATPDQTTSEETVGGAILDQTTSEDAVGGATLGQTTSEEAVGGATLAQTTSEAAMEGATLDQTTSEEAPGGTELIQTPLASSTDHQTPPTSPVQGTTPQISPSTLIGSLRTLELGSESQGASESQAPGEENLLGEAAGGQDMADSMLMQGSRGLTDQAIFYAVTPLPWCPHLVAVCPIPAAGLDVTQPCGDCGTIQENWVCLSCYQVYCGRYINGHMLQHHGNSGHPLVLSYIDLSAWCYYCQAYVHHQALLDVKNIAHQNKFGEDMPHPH

Histone deacetylase 11 = target: T2, Histone deacetylase 11 (Homo sapiens, UniProt Q96DB2); test: Inhibition of HDAC11 (unknown origin)
T2 sequence (Q96DB2 whole entry): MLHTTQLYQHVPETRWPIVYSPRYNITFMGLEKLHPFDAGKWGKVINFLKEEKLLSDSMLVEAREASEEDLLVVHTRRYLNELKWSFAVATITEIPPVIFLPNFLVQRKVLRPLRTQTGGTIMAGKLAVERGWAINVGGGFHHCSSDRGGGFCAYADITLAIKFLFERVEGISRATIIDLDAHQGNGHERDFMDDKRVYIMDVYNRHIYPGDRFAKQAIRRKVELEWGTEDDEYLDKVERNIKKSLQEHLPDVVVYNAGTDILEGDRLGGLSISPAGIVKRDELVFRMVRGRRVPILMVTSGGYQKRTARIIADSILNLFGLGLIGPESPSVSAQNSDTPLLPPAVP

HCT-116 [9] = test: Induction of apoptosis in human HCT-116 cells assessed as increase in Bax protein expression at 0.5 to 1 uM incubated for 24 hrs by Western blot analysis; type: functional, cell-based; details: dose 0.5-1 µM
Histone deacetylase 1 = Histone deacetylase 1 (Homo sapiens, UniProt Q13547); test: Inhibition of HDAC1 (unknown origin)
Chain of Histone deacetylase 1 (Q13547 whole entry): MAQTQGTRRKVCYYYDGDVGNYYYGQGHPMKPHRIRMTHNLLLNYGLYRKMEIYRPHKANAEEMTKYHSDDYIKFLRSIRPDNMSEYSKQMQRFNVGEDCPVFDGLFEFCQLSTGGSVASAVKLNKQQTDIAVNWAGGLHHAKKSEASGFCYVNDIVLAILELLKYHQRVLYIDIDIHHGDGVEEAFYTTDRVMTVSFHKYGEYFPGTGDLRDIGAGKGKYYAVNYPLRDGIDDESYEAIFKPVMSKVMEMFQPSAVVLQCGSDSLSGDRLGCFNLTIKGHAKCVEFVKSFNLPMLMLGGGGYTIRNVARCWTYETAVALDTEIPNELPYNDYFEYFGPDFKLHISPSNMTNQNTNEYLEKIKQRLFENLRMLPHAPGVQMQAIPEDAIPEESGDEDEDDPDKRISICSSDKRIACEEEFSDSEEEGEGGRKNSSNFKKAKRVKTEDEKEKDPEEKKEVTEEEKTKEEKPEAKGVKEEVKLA

HCT-116 [10] = test: Induction of apoptosis in human HCT-116 cells assessed as decrease in Bcl-2 protein expression incubated for 24 hrs by Western blot analysis; type: functional, cell-based; details: dose 0.5-1 µM
K562 = test: Potency index, ratio of SAHA IC50 to test compound IC50 for antiproliferative activity against human K562 cells assessed as inhibition of cell growth by MTT assay; type: functional
HCT-116 [11] = test: Induction of apoptosis in human HCT-116 cells assessed as viable cells at 0.5 uM incubated for 24 hrs by Annexin V-FITC/PI staining based flow cytometry analysis (reference value: 93.2%); type: functional; details: read-out: Activity
HL-60 = test: Potency index, ratio of SAHA IC50 to test compound IC50 for antiproliferative activity against human HL-60 cells assessed as inhibition of cell growth by MTT assay; type: functional
HCT-116 [12] = test: Induction of apoptosis in human HCT-116 cells assessed as late apoptotic cells at 0.5 uM incubated for 24 hrs by Annexin V-FITC/PI staining based flow cytometry analysis (reference value: 0.323%); type: functional

For `O=C(CCCCCCNc1nc2ccccc2nc1-c1nc2ccccc2o1)NO`, which IC50 [1] is on record?
Its IC50 is 19100 nM.

What about the inhibition (HCT-116 [2]) of the same compound?
Its inhibition is “Dose-Dependent Effect”.

And the Activity (HCT-116 [3])?
Its Activity is 0.241%.

And the Activity (HCT-116 [4])?
Its Activity is 51.68%.

What about the Activity (HCT-116 [5]) of the same compound?
Its Activity is 39.64%.

What about the Activity (HCT-116 [6]) of the same compound?
Its Activity is “Dose-Dependent Effect”.

And the inhibition [7]?
The inhibition was “Dose-Dependent Effect”.

What about the IC50 [8] of the same compound?
The IC50 was 44.7 nM.

And the IC50 (Histone deacetylase 11)?
The IC50 was 110 nM.

What about the Activity (HCT-116 [9]) of the same compound?
The Activity was “Active”.

And the IC50 (Histone deacetylase 1)?
Its IC50 is 11 nM.

And the Activity (HCT-116 [10])?
The Activity was “Dose-Dependent Effect”.

And the “Ratio IC50” value (K562)?
The value was 2.

What about the viability at 0.5 µM (HCT-116 [11]) of the same compound?
Its viability at 0.5 µM is 64.5%.

And the “Ratio IC50” value (HL-60)?
The value was 2.

What about the Activity (HCT-116 [12]) of the same compound?
Its Activity is 7.21%.
